Assay results as given in PMC10605449 (Biosensors, 2023).
Blank lines part the entries; values can stand above or below the molecule they belong to.

What was measured:
DKC1(1-514) = target: T1, DKC1(1-514) (Homo sapiens, UniProt O60832); experiment: SPR Extract2Chip, cellular biotinylated DKC1(1-514), RuvBL1/RuvBL2 injected; assay type: binding
T1 construct: The cellular biotinylated His6-DKC1(1-514)-AviTag was immobilized using the approach described in Section 2.5.2; made in house; host or cells: E. coli BL21(DE3), co-expressed with BirA; soluble lysate used without purification
T1 sequence (O60832 1-514): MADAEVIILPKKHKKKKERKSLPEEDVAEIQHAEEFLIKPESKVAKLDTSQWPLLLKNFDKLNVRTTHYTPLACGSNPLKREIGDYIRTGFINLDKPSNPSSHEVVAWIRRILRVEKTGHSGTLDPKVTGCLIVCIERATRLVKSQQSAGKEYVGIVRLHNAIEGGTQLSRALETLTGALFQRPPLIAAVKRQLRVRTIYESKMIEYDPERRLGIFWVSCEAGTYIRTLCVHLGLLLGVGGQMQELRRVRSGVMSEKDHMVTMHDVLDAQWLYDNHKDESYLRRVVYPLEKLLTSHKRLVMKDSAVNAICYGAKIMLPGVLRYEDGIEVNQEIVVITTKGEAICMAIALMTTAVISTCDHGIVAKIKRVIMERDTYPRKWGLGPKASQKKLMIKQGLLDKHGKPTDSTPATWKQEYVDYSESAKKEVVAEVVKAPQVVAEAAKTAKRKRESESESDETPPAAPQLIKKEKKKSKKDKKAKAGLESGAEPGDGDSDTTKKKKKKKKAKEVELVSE
Method: The cellular biotinylation of the DKC1(1-514) protein followed the same approach as that described for CypD. DKC1(1-514) was expressed in BL21(DE3) in LB media and induced with 500 µM IPTG overnight at 18 °C. The PD-10 Desalting column was equilibrated with buffer U (50 mM HEPES pH 6.5, 750 mM KCl, 0.5 mM EDTA, and 0.5 mM TCEP).
The cellular biotinylated His6-DKC1(1-514)-AviTag was immobilized using the approach described in Section 2.5.2. The soluble cell lysate was diluted to 15 µg/mL and coupled with 150 and 300 s injection times to reach 130 to 175 RU. […]
All sensorgrams were processed by first subtracting the binding response recorded from the control surface (reference spot, where only the avidin protein is immobilized), followed by subtraction of the buffer blank injection from the reaction spot. All datasets were fitted to a simple 1:1 Langmuir interaction model to determine the kinetic rate constants, and the interaction affinity was additionally calculated at a steady state when applicable. […] The experiments with immobilized purified proteins were performed on a Biacore 4000 (Cytiva, Uppsala, Sweden), and the interaction was evaluated using the provided Biacore 4000 evaluation software, while the experiments with soluble cell lysates on a Biacore T200 (Cytiva, Uppsala, Sweden) used the provided Biacore T200 evaluation software. […]

[1] = target: T2, YAP(2-268):TEAD1(209-436) interaction (Homo sapiens, UniProt P28347); experiment: SPR, inhibition of YAP:TEAD1 interaction: TEAD1 pre-incubated with binder, injected over cellular biotinylated YAP(2-268); assay type: binding; conditions: for Effect on YAP(2-268):TEAD1 interaction compared with TEAD1 apo-form: TEAD1 incubated with saturating concentration (30 µM) of binder
T2 construct: made in house; host or cells: YAP: E. coli BL21 Star (DE3) pRARE2 lysate
T2 sequence (P28347 209-426): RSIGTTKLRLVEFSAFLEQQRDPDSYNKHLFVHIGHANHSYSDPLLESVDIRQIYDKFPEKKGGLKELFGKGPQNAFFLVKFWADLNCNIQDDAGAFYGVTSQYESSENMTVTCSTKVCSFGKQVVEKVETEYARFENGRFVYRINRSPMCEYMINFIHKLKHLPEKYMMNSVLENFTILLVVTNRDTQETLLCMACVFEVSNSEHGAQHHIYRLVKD
From the text: The cellular biotinylated YAP(2-268) protein, as well as the biotinylated YAP(61-100) peptide, were immobilized using a similar approach as that described previously. However, neutravidin protein (ThermoFisher Scientific) was used as the selected pre-coated surface on a CM5 Series S sensor chip instead of streptavidin. […] The remaining activated groups were then blocked with ethanolamine-HCl. […] The interaction analysis cycles consisted of 120 s of sample injection followed by 280 s of running buffer flow. The experiment was performed at 15 °C. To ensure that the surface integrity of the cellular biotinylated YAP remained intact and that the interaction kinetic profile with TEAD1 was restored, an additional injection of TEAD1 apo-form was performed at the end of each experiment. All sensorgrams were processed by first subtracting the binding response recorded from the control surface (reference spot, where only the avidin protein is immobilized), followed by subtraction of the buffer blank injection from the reaction spot. All datasets were fitted to a simple 1:1 Langmuir interaction model to determine the kinetic rate constants, and the interaction affinity was additionally calculated at a steady state when applicable. In cases where small molecules were present during the assay, a DMSO solvent correction (1–3%) was applied to account for variations in bulk signal and to achieve high-quality data. The experiments with immobilized purified proteins were performed on a Biacore 4000 (Cytiva, Uppsala, Sweden), and the interaction was evaluated using the provided Biacore 4000 evaluation software, while the experiments with soluble cell lysates on a Biacore T200 (Cytiva, Uppsala, Sweden) used the provided Biacore T200 evaluation software. All SPR experiments were performed in duplicate.

TEAD1 [2] = target: T3, TEAD1 (Homo sapiens, UniProt P28347); experiment: Binary complex formation of TEAD1 to TEAD binders, biochemical assays; conditions: data not shown
T3 sequence (P28347 whole entry): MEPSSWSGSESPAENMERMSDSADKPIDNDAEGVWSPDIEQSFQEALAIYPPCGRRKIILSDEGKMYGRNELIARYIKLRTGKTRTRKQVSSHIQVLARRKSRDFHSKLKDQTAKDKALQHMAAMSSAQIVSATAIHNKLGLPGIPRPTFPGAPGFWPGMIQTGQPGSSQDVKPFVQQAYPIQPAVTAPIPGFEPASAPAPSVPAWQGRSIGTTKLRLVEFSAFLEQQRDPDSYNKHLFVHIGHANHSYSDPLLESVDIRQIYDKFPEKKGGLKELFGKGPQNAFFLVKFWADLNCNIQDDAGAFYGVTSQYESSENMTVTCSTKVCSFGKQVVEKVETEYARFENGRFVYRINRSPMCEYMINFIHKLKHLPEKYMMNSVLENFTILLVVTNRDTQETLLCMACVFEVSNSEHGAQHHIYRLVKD

TEAD1 [3] = target: T3, TEAD1; experiment: Binary complex formation of TEAD1 to TEAD binders, SPR; assay type: binding; conditions: data not shown
[4] = target: T4, His6-RuvBL1(1-456)/RuvBL2(1-463) (UniProt Q9Y265 1-456; Q9Y230 1-463); experiment: SPR; cellular biotinylated His6-DKC1(1-514)-AviTag captured from soluble cell lysate (130 to 175 RU) on neutravidin-coated CM5 chip; RuvBL1/RuvBL2 complexes injected, 10 concentrations, 2-fold series from 0.05 µM; 20 mM NaKPi pH 7.5, 150 mM NaCl, 5 mM MgCl2, 1 mM DTT, 0.05% Tween 20; 25 °C; 1:1 Langmuir fit; conditions: one partner purified
T4 construct: RuvBL1, residues 1-456; RuvBL2, residues 1-463; also called RuvBL1/RuvBL2; AAA+ ATPases RuvBL1/RuvBL2; not shown: His6, N-terminal, kept
T4 sequence (Q9Y265 whole entry, chain 1 of 2, the tested form may be a part): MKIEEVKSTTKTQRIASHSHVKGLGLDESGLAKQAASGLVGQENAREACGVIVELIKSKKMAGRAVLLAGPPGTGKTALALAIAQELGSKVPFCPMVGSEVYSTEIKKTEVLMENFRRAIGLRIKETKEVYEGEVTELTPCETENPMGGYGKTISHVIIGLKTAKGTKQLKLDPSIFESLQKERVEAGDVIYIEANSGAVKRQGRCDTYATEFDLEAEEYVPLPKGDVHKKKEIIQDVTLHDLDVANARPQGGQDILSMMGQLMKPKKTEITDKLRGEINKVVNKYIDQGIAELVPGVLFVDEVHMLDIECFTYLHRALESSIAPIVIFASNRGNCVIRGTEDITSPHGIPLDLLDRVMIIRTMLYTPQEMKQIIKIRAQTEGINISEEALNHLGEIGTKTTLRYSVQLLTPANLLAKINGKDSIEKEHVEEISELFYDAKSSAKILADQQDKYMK
T4 sequence (Q9Y230 whole entry, chain 2 of 2, the tested form may be a part): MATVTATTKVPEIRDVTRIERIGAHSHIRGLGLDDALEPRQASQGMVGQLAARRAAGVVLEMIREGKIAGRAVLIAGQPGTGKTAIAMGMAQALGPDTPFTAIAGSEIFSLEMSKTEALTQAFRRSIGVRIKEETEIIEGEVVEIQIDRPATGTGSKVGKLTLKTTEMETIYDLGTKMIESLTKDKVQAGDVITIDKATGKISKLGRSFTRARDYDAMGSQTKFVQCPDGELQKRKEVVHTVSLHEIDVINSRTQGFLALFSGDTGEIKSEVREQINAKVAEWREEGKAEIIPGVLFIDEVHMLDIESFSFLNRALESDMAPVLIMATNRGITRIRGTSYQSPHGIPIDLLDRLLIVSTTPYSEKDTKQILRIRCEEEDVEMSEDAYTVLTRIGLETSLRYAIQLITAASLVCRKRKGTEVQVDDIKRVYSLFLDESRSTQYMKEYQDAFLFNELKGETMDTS

[5] = TEAD1 incubated with 30 µM binder 18 h at 30 °C, 15 °C

Molecule: Nc1ncnc2c1ncn2[C@@H]1O[C@H](CO[P@](=O)(O)O[P@](=O)(O)O[P@@](=O)(O)S)[C@@H](O)[C@H]1O [ATPγS]
- Effect on DKC1:RuvBL1/RuvBL2 interaction (DKC1(1-514); saturating concentrations, data not shown): Identical results

Molecule: CCCC[C@@H]1NC(=O)[C@H](CCCCN)NC(=O)[C@H](CCCNC(=N)N)NC(=O)[C@H](CC(C)C)NC(=O)[C@@H](NC(=O)[C@H](Cc2cccc(Cl)c2)NC(=O)[C@@H]2CCCN2C(=O)[C@@H](NC(C)=O)C(C)C)CCSSC[C@@H](C(=O)N[C@@H](CCCCN)C(=O)N2CCC[C@H]2C(=O)N2CCC[C@H]2C(=O)N[C@@H](CCC(=O)O)C(N)=O)NC(=O)[C@H](Cc2ccccc2)NC(=O)[C@H](CO)NC(=O)[C@H](C)NC(=O)[C@@H]2CCCN2C1=O [Peptide 17]
- Effect on YAP(2-268):TEAD1 interaction compared with TEAD1 apo-form [1]: significantly suppressed the interaction

B1: Cellular biotinylated H/ACA ribonucleoprotein complex subunit Dyskerin pseudouridine synthase 1, His6-DKC1(1-514)-AviTag (natural protein, UniProt O60832 1-514, looked up)
chain: MADAEVIILPKKHKKKKERKSLPEEDVAEIQHAEEFLIKPESKVAKLDTSQWPLLLKNFDKLNVRTTHYTPLACGSNPLKREIGDYIRTGFINLDKPSNPSSHEVVAWIRRILRVEKTGHSGTLDPKVTGCLIVCIERATRLVKSQQSAGKEYVGIVRLHNAIEGGTQLSRALETLTGALFQRPPLIAAVKRQLRVRTIYESKMIEYDPERRLGIFWVSCEAGTYIRTLCVHLGLLLGVGGQMQELRRVRSGVMSEKDHMVTMHDVLDAQWLYDNHKDESYLRRVVYPLEKLLTSHKRLVMKDSAVNAICYGAKIMLPGVLRYEDGIEVNQEIVVITTKGEAICMAIALMTTAVISTCDHGIVAKIKRVIMERDTYPRKWGLGPKASQKKLMIKQGLLDKHGKPTDSTPATWKQEYVDYSESAKKEVVAEVVKAPQVVAEAAKTAKRKRESESESDETPPAAPQLIKKEKKKSKKDKKAKAGLESGAEPGDGDSDTTKKKKKKKKAKEVELVSE
modifications: biotin on the AviTag (BirA, in the cells)
notes: Dyskerin pseudouridine synthase 1 (DKC1), residues 1-514; Captured from the lysate on a neutravidin-coated CM5 chip by the biotinylated AviTag; also called DCK1(1-514); DCK1(1-541); source: E. coli BL21(DE3), co-expressed with BirA-FLAG and D-biotin, in cleared lysate (desalted, not purified); not shown: His6, N-terminal, kept; AviTag, C-terminal, kept
- Kd [4]: 23 nM
- koff [4]: 0.015 s⁻¹
- kon [4]: 650000 M⁻¹ s⁻¹

Continued, values first:

- ka ± SD of YAP(2-268):TEAD1 interaction in presence of binder [1, 5]: 1.2e+06 ± 120000 M⁻¹ s⁻¹
- kd ± SD of YAP(2-268):TEAD1 interaction in presence of binder [1, 5]: 0.34 ± 0.074 s⁻¹
- Effect on YAP(2-268):TEAD1 interaction compared with TEAD1 apo-form [1]: decrease in affinity
- IC50 (TEAD1 [2]): 340 nM
- Kd (TEAD1 [3]): 1400 nM
Molecule: O=C(CCl)c1ccccc1Nc1cccc(C(F)(F)F)c1 [TED-347]

- Interaction with immobilized DKC1(1-514) (DKC1(1-514); compared with RuvBL1(1-456)/RuvBL2(1-463), partly data not shown): Identical results
Molecule: RuvBL1_D302N, RuvBL2_D299N: ATP hydrolysis RuvBL1/RuvBL2 mutant
